{"source": "ChEMBL document CHEMBL1149074", "about": "“Eusynstyelamide, a highly modified dimer peptide from the ascidian Eusynstyela misakiensis” (J Nat Prod, 1994)", "test_system": "HCT-116", "experiment": "Cytotoxicity against human HCT116 cells upto 100 ug/ml after 72 hrs by XTT assay", "assay_type": "functional, cell-based"}
{"smiles": "N=C(N)NCCCCNC(=O)C(O)(O)C(c1c[nH]c2cc(Br)ccc12)C(O)(Cc1c[nH]c2cc(Br)ccc12)C(=O)NCCCCNC(=N)N", "note": "(stereo unspecified)", "values": [{"measurement": "Activity", "result": "Not toxic"}]}
